The supplement of paper PMC10307832

Tests used:
Assay in all cases: relative viability (nuclei count vs DMSO), 5 days (fraction); higher = more cells survive
Etoposide + Bortezomib = compound: COc1cc([C@@H]2c3cc4c(cc3[C@@H](O[C@@H]3O[C@@H]5CO[C@@H](C)O[C@H]5[C@H](O)[C@H]3O)[C@H]3COC(=O)[C@H]23)OCO4)cc(OC)c1O [Etoposide] + CC(C)C[C@H](NC(=O)[C@H](Cc1ccccc1)NC(=O)c1cnccn1)B(O)O [Bortezomib] (partner 0.002 µM)
Method in brief: (§1)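 Relative viability equals treated-well nuclei counts divided by vehicle-well nuclei counts. Counts came from 4× images of lung cancer cell lines grown in 1536-well plates for 5 days after pin-tool dosing on the day after seeding. Dosing used one drug alone or a fixed anchor-drug dose plus five library-drug doses (not always all listed) in √10 steps, and values are medians of duplicate plates.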

Bleomycin + Alpelisib = compound: CC1=C(N=C(N=C1N)[C@H](CC(=O)N)NC[C@@H](C(=O)N)N)C(=O)N[C@@H]([C@H](C2=CN=CN2)OC3C(C(C(C(O3)CO)O)O)OC4C(C(C(C(O4)CO)O)OC(=O)N)O)C(=O)N[C@H](C)[C@H]([C@H](C)C(=O)N[C@@H]([C@@H](C)O)C(=O)NCCC5=NC(=CS5)C6=NC(=CS6)C(=O)NCCC[S+](C)C)O [Bleomycin] + Cc1nc(NC(=O)N2CCC[C@H]2C(N)=O)sc1-c1ccnc(C(C)(C)C(F)(F)F)c1 [Alpelisib] (partner 2 µM); settings: main component drawn
Method in brief: as §1

Etoposide = compound: COc1cc([C@@H]2c3cc4c(cc3[C@@H](O[C@@H]3O[C@@H]5CO[C@@H](C)O[C@H]5[C@H](O)[C@H]3O)[C@H]3COC(=O)[C@H]23)OCO4)cc(OC)c1O [Etoposide]
Method in brief: (§2)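 Viability here means nuclei in treated wells divided by nuclei in vehicle wells, reported as the median across plates. Only plates with control CV below 25% and at least one doubling passed. Lung cancer cell lines in 1536-well plates were exposed to five √10-spaced library-drug doses for 5 days and counted from 4× Hoechst images in MetaXpress.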

Bleomycin = compound: CC1=C(N=C(N=C1N)[C@H](CC(=O)N)NC[C@@H](C(=O)N)N)C(=O)N[C@@H]([C@H](C2=CN=CN2)OC3C(C(C(C(O3)CO)O)O)OC4C(C(C(C(O4)CO)O)OC(=O)N)O)C(=O)N[C@H](C)[C@H]([C@H](C)C(=O)N[C@@H]([C@@H](C)O)C(=O)NCCC5=NC(=CS5)C6=NC(=CS6)C(=O)NCCC[S+](C)C)O [Bleomycin]; settings: main component drawn
Method in brief: as §2

Cell Line | relative viability (Etoposide + Bortezomib; first compound 0.01 µM) | relative viability (Etoposide + Bortezomib; first compound 0.03162 µM) | relative viability (Etoposide + Bortezomib; first compound 0.1 µM) | relative viability (Etoposide + Bortezomib; first compound 0.3162 µM) | relative viability (Etoposide + Bortezomib; first compound 1 µM) | relative viability (Bleomycin + Alpelisib; first compound 0.01 µM) | relative viability (Bleomycin + Alpelisib; first compound 0.03162 µM) | relative viability (Bleomycin + Alpelisib; first compound 0.1 µM) | relative viability (Bleomycin + Alpelisib; first compound 0.3162 µM) | relative viability (Bleomycin + Alpelisib; first compound 1 µM) | relative viability (Etoposide; 0.01 µM) | relative viability (Etoposide; 0.03162 µM) | relative viability (Etoposide; 0.1 µM) | relative viability (Etoposide; 0.3162 µM) | relative viability (Etoposide; 1 µM) | relative viability (Bleomycin; 0.01 µM) | relative viability (Bleomycin; 0.03162 µM) | relative viability (Bleomycin; 0.1 µM) | relative viability (Bleomycin; 0.3162 µM) | relative viability (Bleomycin; 1 µM)
NCI-H1563 | 0.802 | 0.866 | 0.781 | 0.618 | 0.605 | 0.831 | 0.707 | 0.678 | 0.613 | 0.572 | 0.816 | 0.974 | 0.791 | 0.641 | 0.55 | 0.843 | 0.836 | 0.783 | 0.625 | 0.652
ABC-1 | 0.301 | 0.33 | 0.261 | 0.296 | 0.237 | 0.883 | 1.03 | 0.615 | 0.425 | 0.298 | 1.08 | 0.954 | 0.697 | 0.41 | 0.273 | 0.741 | 0.942 | 0.891 | 0.383 | 0.29
LCLC-103H | 1.1 | 1.24 | 0.93 | 0.956 | 0.978 | 0.92 | 0.967 | 1.05 | 0.934 | 0.4 | 0.976 | 1.15 | 0.879 | 0.942 | 0.864 | 0.916 | 0.94 | 0.982 | 0.569 | 0.382
NCI-H460 | 0.933 | 0.763 | 0.608 | 0.0494 | 0.0267 | 0.294 | 0.243 | 0.136 | 0.0356 | 0.017 | 0.899 | 0.933 | 0.785 | 0.164 | 0.0591 | 0.738 | 0.661 | 0.483 | 0.0877 | 0.0714
EPLC-272H | 0.89 | 1.15 | 0.669 | 0.958 | 0.526 | 0.889 | 0.847 | 0.797 | 0.308 | 0.176 | 1.05 | 1.09 | 0.658 | 0.815 | 0.513 | 0.811 | 0.882 | 0.434 | 0.132 | 0.151
